Where a name gives a salt, the structure may show the parent alone.
Assays:
P-388 leukemia cells = assay: Antitumor activity: P-388 leukemia cells inoculated intraperitoneally, drug administered intravenously, BDF1 mice; format: in vivo; conditions: Mus musculus, P388, iv, BDF1 mice, P-388 i.p., read-out: T/C (%) of MST; for response vs control in vivo at 20 mg/kg: dose b: 20 mg/kg × 3, i.v. on days 1, 5 and 9; for response vs control in vivo at 40 mg/kg: dose c: 40 mg/kg × 3, i.v. on days 1, 5 and 9; for response vs control in vivo at 80 mg/kg: dose f: 80 mg/kg × 3, i.v. on days 1, 5 and 9; for response vs control in vivo at 60 mg/kg: dose e: 60 mg/kg × 3, i.v. on days 1, 5 and 9
How it was run: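 Drug dosing was intravenous on the first, fifth and ninth days after intraperitoneal inoculation of P-388 leukemia cells (1×10^6 per mouse) into BDF1 mice. Vehicles were physiological saline alone, or saline with small amounts of sodium carboxymethyl cellulose or Tween-80.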

[1] = Acute toxicity, intravenous (once), ddY mice; format: in vivo; conditions: mouse, in vivo, iv, formulated per Preparation Example
Excerpt: In Table 7 are shown acute toxicity values (LD50, mg/kg) in ddY mice in the case of intravenously administering (once) each of the compounds of this invention in the form of preparations shown in the Preparation Examples shown in Table 7.

Row | Structure (SMILES) | response vs control in vivo at 20 mg/kg (P-388 leukemia cells) | response vs control in vivo at 40 mg/kg (P-388 leukemia cells) | LD50 [1] | response vs control in vivo at 80 mg/kg (P-388 leukemia cells) | response vs control in vivo at 60 mg/kg (P-388 leukemia cells)
1 | CCN(CC)CCC(=O)Oc1c2cccc(OC3OC(C)C4OC(c5ccccc5)OC4C3OC3OC(C)C(O)C(OC)C3O)c2c2oc(=O)c3c(C)ccc4oc(=O)c1c2c43 (stereo not drawn) [Compound No. 8, 6-O-(N,N-Diethyl-β-Alanyl)-3',4'-O-Benzylidene-Chartreusin Hydrochloride] | 186% | 220% | ≥ 40 mg/kg | – | –
2 | COC1C(O)C(C)OC(OC2C(Oc3cccc4c(OC(=O)CCC(C)=O)c5c(=O)oc6ccc(C)c7c(=O)oc(c34)c5c67)OC(C)C3OC(c4cccc(C(F)(F)F)c4)OC32)C1O (stereo not shown) [Compound No. 162] | – | 157% | ≥ 80 mg/kg | 243% | –
3 | COC1C(O)C(C)OC(OC2C(Oc3cccc4c(OC(=O)CC(C)NC(=O)C(F)(F)F)c5c(=O)oc6ccc(C)c7c(=O)oc(c34)c5c67)OC(C)C3OC(C)(C)OC32)C1O (stereo not shown) [Compound No. 51] | – | 136% | ≥ 100 mg/kg | 207% | –
4 | COC1C(O)C(C)OC(OC2C(Oc3cccc4c(OC(=O)COC(C)=O)c5c(=O)oc6ccc(C)c7c(=O)oc(c34)c5c67)OC(C)C3OC(c4ccccc4)OC32)C1O (stereo not shown) [Compound No. 148] | 185% | 250% | ≥ 40 mg/kg | – | –
5 | COC1C(O)C(C)OC(OC2C(Oc3cccc4c(OC(=O)CCCCCCCNC(=O)C(F)(F)F)c5c(=O)oc6ccc(C)c7c(=O)oc(c34)c5c67)OC(C)C3OC(c4cccc(F)c4)OC32)C1O (stereo not shown) [Compound No. 64] | – | 165% | ≥ 80 mg/kg | 210% | –
6 | COC1C(O)C(C)OC(OC2C(Oc3cccc4c(OC(=O)C(C)CNC(=O)C(F)(F)F)c5c(=O)oc6ccc(C)c7c(=O)oc(c34)c5c67)OC(C)C3OC(c4cccc(C(F)(F)F)c4)OC32)C1O (stereo not shown) [Compound No. 30] | – | 171% | ≥ 80 mg/kg | 257% | –
7 | CO[C@H]1[C@@H](O)[C@@H](C)O[C@H](O[C@H]2[C@H](Oc3cccc4c(OC(=O)c5ccccc5Cl)c5c(=O)oc6ccc(C)c7c(=O)oc(c34)c5c67)O[C@H](C)[C@@H]3OC(C)(C)O[C@@H]32)[C@@H]1O [Compound No. 181] | – | 145% | ≥ 80 mg/kg | 208% | –
8 | COC1C(O)C(C)OC(OC2C(Oc3cccc4c(OC(=O)C5CC=CCC5)c5c(=O)oc6ccc(C)c7c(=O)oc(c34)c5c67)OC(C)C3OC(C)(C)OC32)C1O (stereo not shown) [Compound No. 223, 6-O-(3-Cyclohexene-1-Carbonyl)-3',4'-O-Isopropylidene-Chartreusin] | – | – | ≥ 60 mg/kg | – | 172%
9 | COC1C(O)C(C)OC(OC2C(Oc3cccc4c(OC(=O)CNC(=O)CNC(=O)CNC(=O)OCc5ccccc5)c5c(=O)oc6ccc(C)c7c(=O)oc(c34)c5c67)OC(C)C3OC(c4ccccc4)OC32)C1O (stereo not shown) [Compound No. 114, 6-O-(N-Carbobenzyloxy-Glycyl-Glycyl-Glycyl)-3',4'-O-Benzylidene-Chartreusin] | – | 130% | ≥ 40 mg/kg | – | –
10 | CCN(CC)CCC(=O)Oc1c2cccc(OC3OC(C)C4OC(c5cccc(F)c5)OC4C3OC3OC(C)C(O)C(OC)C3O)c2c2oc(=O)c3c(C)ccc4oc(=O)c1c2c43 (stereo not drawn) [Compound No. 15, 6-O-(N,N-diethyl-β-alanyl)-3',4'-O-(m-fluorobenzylidene)-chartreusin hydrochloride] | 189% | – | ≥ 30 mg/kg | – | –
11 | COC1C(O)C(C)OC(OC2C(Oc3cccc4c(OC(=O)CC(C)CC(C)(C)C)c5c(=O)oc6ccc(C)c7c(=O)oc(c34)c5c67)OC(C)C3OC(C)(C)OC32)C1O (stereo not shown) [compound 237] | – | – | ≥ 60 mg/kg | – | 242%
12 | COC1C(O)C(C)OC(OC2C(Oc3cccc4c(OC(=O)CCCCCCCNC(=O)C(F)(F)F)c5c(=O)oc6ccc(C)c7c(=O)oc(c34)c5c67)OC(C)C3OC(C)(C)OC32)C1O (stereo not shown) [compound 99] | – | – | ≥ 100 mg/kg | 136% | –
